The results in this text go back to patent publication EP0503079A1, “PYRIDAZINONE-SUBSTITUTED ETHYNYLPHENYL DERIVATIVE AND REMEDY FOR CIRCULATORY ORGAN DISEASE CONTAINING THE SAME AS ACTIVE INGREDIENT” (KAKEN PHARMACEUTICAL CO., LTD., priority 1990, dated 1992).

The subject of one assay is platelet aggregation. In words: Inhibitory activity on platelet aggregation (turbidimetry). The class given is cell-based, New Zealand White male rabbits. Conditions: for Inhibition rate (%) ADP aggregation: 0.6 µg/mℓ ADP; for Inhibition rate (%) PAF aggregation: 5 x 10⁻⁹M PAF; for Inhibition rate (%) Collagen aggregation: 2 µg/mℓ collagen. Here is the method:
Blood was exsanguinated from New Zealand White male rabbits weighing from 2.5 to 3.0 kg and subjected to the test. Each test compound was dissolved in ethanol and prepared to be 1 x 10⁻⁵, 1 x 10⁻⁶ or 1 x 10⁻⁷M respectively. Each aggregation response was measured by turbidimetry. Concentration of aggregating agent was 2 µg/mℓ of collagen, 0.6 µg/mℓ of adenosine 5'-diphosphate (ADP) or 5 x 10⁻⁹M of platelet aggregating factor (PAF).
(§1) Inhibition rate was calculated by the following formula. [formula]

Assay [1] deals with Aortae abdominalis of male Wister rats. In words: Anti-norepinephrine activity on rat abdominal aorta strip preparations (auto-Magnus apparatus). The settings on record: tension by norepinephrine (10⁻⁷M) regarded as 100. On the procedure:
Aortae abdominalis of male Wister rats (8-12 weeks) were delivered and cut in spiral-shape to be strip preparations. Each test compounds was disolved in DMSO. Then, the solution was diluted with distilled water and prepared to be desired concentration. Using an auto-Magnus apparatus, as to the vasoconstriction after adding norepinephrine, contractive forces were measured under the existence of the test compounds.

The test system of a further assay is Slc-ddy male mice. In words: Activity on hypoxia induced in decapitation of mice (gasping time). The assay is classed as in vivo. Also on record: dose or concentration left out as unconfirmed. Conditions: gasping time after decapitation, one hour after oral administration. On the procedure:
In each group, 3 Slc-ddy male mice (4 weeks) were employed. Each test compound was suspended or dissolved in a 0.5 % methyl cellulose solution. After the concentration was adjusted, the dose became […], the solution was administered orally. One hour after the administration, mice were decapitated and gasping time was measured.
as §1

A further assay has as its system Slc: ddy male mice. The assay can be described thus: Activity on stress ulcers (restraint and water immersion). The assay is classed as in vivo. The settings on record: length of ulcer in glandular stomach; 30 mg/kg orally; restrained and immersed in water of 23°C for 7 hours. Here is the method:
In each group, 5 Slc: ddy male mice (6 weeks) were employed. Each test compound was kneaded with Tween-80 followed by adding a 0.5 % solution of gum arabic to prepare 30 mg/10 mℓ solution (solution containing 1.5 % Tween-80 and 0.5 % gum arabic). Then, the preparation was administered orally in a rate of 30 mg/kg. After the administration, the mice were restrained and immersed in a water tank of 23°C for 7 hours. Then, length of the ulcer in the glandular stomach was measured by a stereoscopic microscope (x 10).

With “2,6-dimethyl-3-methoxycarbonyl-5-{4-(6-oxo-1,4,5,6-tetrahydropyridazinon-3-yl)phenyl}aminocarbonyl-4-[3-{2-(4-nitro)phenyl)ethynyl]phenyl-1,4-dihydropyridine [Compound 4]”, the “Inhibition rate (%) ADP aggregation” value in the assay on platelet aggregation (compound 10⁻⁵ M) is 91%; in the assay on platelet aggregation (compound 10⁻⁶ M), 58%; in the assay with platelet aggregation (compound 10⁻⁷ M) it was 22%. In addition, in the assay with platelet aggregation (compound 10⁻⁵ M), the “Inhibition rate (%) PAF aggregation” value is 64%. Further, the “Inhibition rate (%) Collagen aggregation” value stood at 92% in the assay on platelet aggregation (compound 10⁻⁶ M) and 24% in the assay with platelet aggregation (compound 10⁻⁷ M). Besides, the Contractive force in assay [1] (compound 10⁻⁷ M) was 13.2; in assay [1] (compound 10⁻⁸ M), 71.5; in assay [1] (compound 10⁻⁹ M), 93.2. In the assay on Slc-ddy male mice, the “Inhibition rate (%)” value stood at 13.2%.

As to “2,6-dimethyl-3-methoxycarbonyl-5-{4-(6-oxo-1,4,5,6-tetrahydropyridazinon-3-yl)phenyl}aminocarbonyl-4-{3-(1-heptyn-1-yl)}phenyl-1,4-dihydropyridine [Compound 3]”, the “Inhibition rate (%) ADP aggregation” value in the assay on platelet aggregation (compound 10⁻⁵ M) is 87%; with platelet aggregation (compound 10⁻⁶ M) it was 59%; in the assay with platelet aggregation (compound 10⁻⁷ M), 18%. In addition, the “Inhibition rate (%) PAF aggregation” value in the assay with platelet aggregation (compound 10⁻⁵ M) stood at 65%. Also, the “Inhibition rate (%) Collagen aggregation” value is given as 93% in the assay on platelet aggregation (compound 10⁻⁶ M) and 28% in the assay on platelet aggregation (compound 10⁻⁷ M). For the same molecule, the Contractive force in assay [1] (compound 10⁻⁷ M) is 12.5; in assay [1] (compound 10⁻⁸ M), 68.3; in assay [1] (compound 10⁻⁹ M), 92.4.

For the molecule “2,6-dimethyl-3-methoxycarbonyl-5-{4-(6-oxo-1,4,5,6-tetrahydropyridazinon-3-yl)phenyl}aminocarbonyl-4-{3-(6-morpholino-1-hexyn-1-yl)}phenyl-1,4-dihydropyridine [Compound 5]”, in the assay with platelet aggregation (compound 10⁻⁵ M), the “Inhibition rate (%) ADP aggregation” value came to 89% and the “Inhibition rate (%) PAF aggregation” value was found to be 59%. Also, in the assay on platelet aggregation (compound 10⁻⁶ M), the “Inhibition rate (%) ADP aggregation” value was 61% and the “Inhibition rate (%) Collagen aggregation” value is 89%. Moreover, in the assay with platelet aggregation (compound 10⁻⁷ M), the “Inhibition rate (%) ADP aggregation” value worked out at 20% and the “Inhibition rate (%) Collagen aggregation” value stood at 26%. In addition, the “Inhibition rate (%)” value in the assay on Slc-ddy male mice stood at 3.2%.

With “2,6-dimethyl-4-(3-ethynylphenyl)-3-methoxycarbonyl-5-{4-(4-methyl-6-oxo-1,4,5,6-tetrahydropyridazinon-3-yl)phenyl}aminocarbonyl-1,4-dihydropyridine [Compound 16]”, the “Inhibition rate (%) ADP aggregation” value in the assay on platelet aggregation (compound 10⁻⁵ M) stood at 88%; in the assay with platelet aggregation (compound 10⁻⁶ M), 65%; with platelet aggregation (compound 10⁻⁷ M) it was 19%. The “Inhibition rate (%) PAF aggregation” value in the assay on platelet aggregation (compound 10⁻⁵ M) came to 66%. Besides, the “Inhibition rate (%) Collagen aggregation” value was found to be 97% in the assay on platelet aggregation (compound 10⁻⁶ M) and 25% in the assay with platelet aggregation (compound 10⁻⁷ M). The Contractive force in assay [1] (compound 10⁻⁷ M) is on record as 17.9; in assay [1] (compound 10⁻⁸ M), 86.4; in assay [1] (compound 10⁻⁹ M), 105.3. Also, in the assay on Slc-ddy male mice, the “Inhibition rate (%)” value came out at 3.4%.

On to “2,6-dimethyl-4-(3-ethynylphenyl)-3-methoxycarbonyl-5-{4-(5-methyl-6-oxo-1,4,5,6-tetrahydropyridazinon-3-yl)phenyl}aminocarbonyl-1,4-dihydropyridine [Compound 15]”, for which the “Inhibition rate (%) ADP aggregation” value with platelet aggregation (compound 10⁻⁵ M) stood at 88%; with platelet aggregation (compound 10⁻⁶ M), 47%; in the assay with platelet aggregation (compound 10⁻⁷ M) it was 16%. For the same molecule, the “Inhibition rate (%) PAF aggregation” value with platelet aggregation (compound 10⁻⁵ M) was found to be 40%. The figures for the “Inhibition rate (%) Collagen aggregation” value in the assay on platelet aggregation (compound 10⁻⁶ M) and with platelet aggregation (compound 10⁻⁷ M) were 96% and 28%, respectively. For the same molecule, the “Inhibition rate (%)” value stood at 98.1% in the assay with Slc: ddy male mice and 5.2% in the assay with Slc-ddy male mice. Also, the results for the Contractive force in assay [1] (compound 10⁻⁷ M), in assay [1] (compound 10⁻⁸ M) and in assay [1] (compound 10⁻⁹ M) were 9.8, 68.3 and 85.6, respectively.

Take “4-{3-(2-tert-butoxycarbonyl)ethynyl}phenyl-2,6-dimethyl-5-{4-(6-oxo-1,4,5,6-tetrahydropyridazinon-3-yl)phenyl}aminocarbonyl-3-methoxycarbonyl-1,4-dihydropyridine [Compound 8]”: the “Inhibition rate (%)” value in the assay with Slc: ddy male mice is recorded as 75.4%; in the assay with Slc-ddy male mice, 12.8%.

Consider `C#Cc1ccc(OC)c(C2C(C(=O)Nc3ccc(C4=NNC(=O)CC4)cc3)=C(C)NC(C)=C2C(=O)OCC)c1` (stereo not shown) [Compound 18, 2,6-dimethyl-4-(3-ethynyl-6-methoxyphenyl)-3-ethoxycarbonyl-5-{4-(6-oxo-1,4,5,6-tetrahydropyridazinon-3-yl)phenyl}aminocarbonyl-1,4-dihydropyridine], for which the “Inhibition rate (%) ADP aggregation” value turned out to be 82% in the assay on platelet aggregation (compound 10⁻⁵ M), 61% in the assay on platelet aggregation (compound 10⁻⁶ M) and 19% with platelet aggregation (compound 10⁻⁷ M). The “Inhibition rate (%) PAF aggregation” value in the assay with platelet aggregation (compound 10⁻⁵ M) was found to be 61%. Besides, the entries for the “Inhibition rate (%) Collagen aggregation” value in the assay with platelet aggregation (compound 10⁻⁶ M) and in the assay on platelet aggregation (compound 10⁻⁷ M) were 100% and 30%, respectively. Moreover, the Contractive force turned out to be 16.3 in assay [1] (compound 10⁻⁷ M), 90.5 in assay [1] (compound 10⁻⁸ M) and 111.2 in assay [1] (compound 10⁻⁹ M).

In the case of `C#Cc1cccc(C2C(C(=O)Nc3ccc(C4=NNC(=O)CC4CC)cc3)=C(C)NC(C)=C2C(=O)OC)c1` (stereo not shown) [Compound 19, 2,6-dimethyl-4-(3-ethynylphenyl)-5-{4-(4-ethyl-6-oxo-1,4,5,6-tetrahydropyridazinon-3-yl)phenyl} aminocarbonyl-3-methoxycarbonyl-1,4-dihydropyridine], the “Inhibition rate (%) ADP aggregation” value with platelet aggregation (compound 10⁻⁵ M) stood at 83%; in the assay with platelet aggregation (compound 10⁻⁶ M) it was 63%; in the assay on platelet aggregation (compound 10⁻⁷ M), 20%. For the same molecule, in the assay with platelet aggregation (compound 10⁻⁵ M), the “Inhibition rate (%) PAF aggregation” value came to 38%. For the same molecule, the “Inhibition rate (%) Collagen aggregation” value is given as 91% with platelet aggregation (compound 10⁻⁶ M) and 28% in the assay on platelet aggregation (compound 10⁻⁷ M). Further, the “Inhibition rate (%)” value in the assay with Slc: ddy male mice stood at 92.6%; in the assay with Slc-ddy male mice, 5.6%. The Contractive force was 14.9 in assay [1] (compound 10⁻⁷ M), 84.9 in assay [1] (compound 10⁻⁸ M) and 101.1 in assay [1] (compound 10⁻⁹ M).

Consider `C#Cc1cccc(C2C(C(=O)Nc3ccc(C4=NNC(=O)CC4)cc3)=C(C)NC(C)=C2C(=O)OCC)c1` (stereo not shown) [Compound 20, 2,6-dimethyl-4-(3-ethynylphenyl)-3-ethoxycarbonyl-5-{4-(6-oxo-1,4,5,6-tetrahydropyridazinon-3-yl)phenyl}aminocarbonyl-1,4-dihydropyridine], for which the “Inhibition rate (%) ADP aggregation” value turned out to be 93% in the assay with platelet aggregation (compound 10⁻⁵ M), 68% in the assay with platelet aggregation (compound 10⁻⁶ M) and 20% in the assay on platelet aggregation (compound 10⁻⁷ M). Moreover, the “Inhibition rate (%) PAF aggregation” value with platelet aggregation (compound 10⁻⁵ M) was 70%. Also, the “Inhibition rate (%) Collagen aggregation” value was found to be 95% in the assay on platelet aggregation (compound 10⁻⁶ M) and 23% in the assay on platelet aggregation (compound 10⁻⁷ M).

Regarding `C#Cc1cccc(C2C(C(=O)Nc3ccc(C4=NNC(=O)CC4)cc3)=C(C)NC(C)=C2C(=O)OCCOC)c1` (stereo not shown) [Compound 22, 2,6-dimethyl-4-(3-ethynylphenyl)-3-methoxyethoxycarbonyl-5-{4-(6-oxo-1,4,5,6-tetrahydropyridazinon-3-yl)phenyl}aminocarbonyl-1,4-dihydropyridine], the figures for the “Inhibition rate (%) ADP aggregation” value with platelet aggregation (compound 10⁻⁵ M), with platelet aggregation (compound 10⁻⁶ M) and in the assay with platelet aggregation (compound 10⁻⁷ M) were 86%, 55% and 14%, respectively. For the same molecule, the “Inhibition rate (%) PAF aggregation” value in the assay with platelet aggregation (compound 10⁻⁵ M) came to 48%. For the same molecule, the “Inhibition rate (%) Collagen aggregation” value with platelet aggregation (compound 10⁻⁶ M) amounted to 100%; in the assay on platelet aggregation (compound 10⁻⁷ M) it was 29%.

On to `C#Cc1cccc(C2C(C(=O)Nc3ccc(C4=NNC(=O)CC4C)cc3)=C(C)NC(N)=C2C(=O)OCC)c1` (stereo not shown) [Compound 23, 2-amino-4-(3-ethynylphenyl)-3-ethoxycarbonyl-6-methyl-5-{4-(6-oxo-4-methyl-1,4,5,6-tetrahydropyridazinon-3-yl)phenyl}aminocarbonyl-1,4-dihydropyridine], for which, in the assay on platelet aggregation (compound 10⁻⁵ M), the “Inhibition rate (%) ADP aggregation” value is reported as 86% and the “Inhibition rate (%) PAF aggregation” value is listed as 47%. In the assay with platelet aggregation (compound 10⁻⁶ M), the “Inhibition rate (%) ADP aggregation” value was 56% and the “Inhibition rate (%) Collagen aggregation” value turned out to be 100%. In the assay with platelet aggregation (compound 10⁻⁷ M), the “Inhibition rate (%) ADP aggregation” value worked out at 18% and the “Inhibition rate (%) Collagen aggregation” value is given as 30%. For the same molecule, the “Inhibition rate (%)” value in the assay with Slc: ddy male mice stood at 91.7%.
